In experiment [1] the test system is BMDC. Kind of experiment: Cell death of BMDC by TUNEL assay. Type of experiment: cell-based, mice. Here is the method: (§1) The preparation of bone marrow-derived dendritic cells (BMDC) was done according to the method of Lutz et al. (26) using GM-CSF ([…] PeproTech, Rocky Hill N.J.) or GM-CSF plus IL-4 (10 μg/ml, PeproTech). Cells were used on day 7.
(§2) Cell death was examined by terminal deoxynucleotidyl transferase dUTP nick end labeling (TUNEL). Briefly, cells were stained for expression of cell surface molecules, and then fixed with 1% methanol-free formaldehyde followed by 70% ethanol. After washing, the TUNEL reaction was performed by incubating cells in 50 μl of reaction mix containing 10 units of terminal deoxribosyl transferase (TdT), 2.5 mM cobalt chloride in 1× TdT buffer, and 0.2 pmol/μl of FITC-dUTP (Roche, Indianapolis, Ind.) at 37° C. for 1 hour. The cells were washed twice and fixed in 1% methanol-free formaldehyde. Murine thymocytes were included as a positive control for apoptotic cells. Flow cytometry was performed on an LSRII (BD Biosciences, San Jose, Calif.) calibrated with compensation beads (BD Biosciences). Analysis was performed using FlowJo software (Tree Star, Inc., Ashland, Oreg.).

Experiment [2] deals with BMDC. As to the kind of experiment: Cytokine production by Borrelia-stimulated BMDC (Bio-Plex). Type of experiment: cell-based, mice. As to conditions: zVAD, 20 h. The protocol:
as §1
Day 7 γδ T cells and BMDC were cultured either individually or together at a 1:1 ratio (10^6 cells/ml each). To some cultures the following reagents were added: a sonicate of Borrelia burgdorferi (10 μg/ml), zVAD-fmk (MP Biomedical, Santa Ana Calif.) at the doses indicated, necrostatin (50 μM, R&D Systems, Minneapolis, Minn.), anti-TNF-α (10 μg/ml, Calbiochem, Darnstadt, Germany),, anti-IL-1 Receptor antagonist, Anakinra (200 ng/ml, Amgen, Thousand Oaks, Calif.), anti-IL-12 (10 μg/ml, BioLegend San Diego, Calif.), anti-IL-18 (10 μg/ml, MBL, Woburn Mass.), or rat IgG (10 μg/ml Jackson Immunoresearch, West Grove Pa.). Transwell assays were performed using 1×10^6 γδ T cells in 1 ml of complete medium+IL-2 placed in the lower chamber, with 5×10^5 DC in 100 μl placed in the upper chamber. […]
Cytokine levels of IFN-γ, IL-1β, IL-12p40, IL-12p70, IL-17, and TNF-α were detected using the Bio-Plex, MilliPlex, or Luminex immunoassay (Bio-Rad; Millipore-EMD; R&D Systems, Minneapolis, Minn.) according to the manufacturer's protocol. Briefly, samples were run undiluted or diluted 1:10 in RPMI complete media. 50 μl of the magnetic bead working solution was added to each well, then 50 μl of appropriate samples or standards were then added to wells and incubated at room temperature for 30-120 min at 800 rpm on an IKA MS 3 digital shaker. After three washes with 100 μl Bio-Plex wash buffer, incubation with 25 μl of detection antibody solution was done at room temperature for 30-60 min on the shaker. Following another set of three washes, 50 μl of streptavidin-phycoerythrin (PE) in assay buffer was added to each well and incubated as described for the previous step. After an additional three washes, 125 μl of assay buffer was added. Sample data was analyzed with Bio-Plex Manager software.

The subject of experiment [3] is RIPK1. As to the kind of experiment: RIPK1 cleavage in BMDC by immunoblot. It counts as cell-based, mice. The protocol:
Day 7 BMDC were lysed in Tris-buffer containing Complete Protease Inhibitor (Roche), 0.2% NP-40 (Roche), and biotin-VAD-fmk (10 μM, MP Biomedicals, Santa Ana, Calif.). Insoluble cell fragments were removed by centrifugation, and the protein concentration of the resulting whole cell lysates was determined by Bradford assay (BioRad, Hercules, Calif.). Whole cell lysates (30 μg per lane) were separated by SDS-PAGE. Precipitation of active caspases was performed by rocking 600 μg of whole cell lysates initially with sepharose 4B beads (Sigma) at 4° C. for 2 hours to remove nonspecific binding of proteins to the beads, followed by overnight rocking incubation with streptavidin-conjugated sepharose beads (Invitrogen) at 4° C. Release of biotin-VAD-fmk-labeled caspases from the streptavidin beads was achieved by heating to 95° C. for 10 min in Laemmli buffer. After gel electrophoresis, proteins were transferred to PVDF membranes (0.2 μm pore size, Bio-Rad), and immunoblots were performed using antibodies (1 μg/ml) against caspase-3, caspase-8 (both Cell Signaling, Danvers, Mass.), caspase-9 (Stressgen, Farmingdale, N.Y.), and RIPK1 (BD Biosciences).

The test system of experiment [4] is human DC. As to the kind of experiment: Cell death of human DC from peripheral blood monocytes. Type of experiment: cell-based. Conditions: human DC cultured with GM-CSF, zVAD at doses very similar to murine DC, 20 h. Here is the method: as §2, with “Human monocytes were obtained as […] cells by magnetic bead purification (Miltenyi Biotech, Auburn, Calif.) from peripheral blood of healthy volunteers. Myeloid DC were prepared by culture of monocytes in AIM V media plus 10% fetal calf serum (HyClone) with 800 U/ml of granulocyte-macrophage colony-stimulating factor (GM-CSF), (BioLegend, San Diego, Calif.) without or with 500 U/ml IL-4 (BioLegend). Cell” for “Cell”

Where a SMILES comes first, the peptide text is derived from it. The star is where a group is joined. Cbz = O=C(OCc1ccccc1)*; CH2F = FC*

Regarding `CC(C)[C@H](NC(=O)OCc1ccccc1)C(=O)N[C@@H](C)C(=O)N[C@@H](CC(=O)O)C(=O)CF` [zVAD, N-benzyloxycarbonyl-Val-Ala-Asp-fluoromethyl ketone] (Cbz-Val-Ala-Asp-CH2F), the “dead BMDC” value in experiment [1] (50 μM zVAD, BMDC grown in GM-CSF, within 18 hours, dose-dependent) is reported as around 80%. For the same molecule, the “cell death of BMDC” value in experiment [1] (GM-CSF+IL-4-cultured BMDC with zVAD, compared to BMDC cultured with only GM-CSF) is listed as “greatly reduced cell death”. Moreover, in experiment [2], the “BMDC production of IL-1β” value is listed as “completely inhibited”, the “BMDC production of TNF-α” value was “augmented”, the “production of IL-12 p40 by BMDC” value is “partially inhibited” and the “production of IL-12 p70 by BMDC” value is on record as “partially inhibited”. Also, the “cleavage of RIPK1” value in experiment [3] (BMDC cultured with GM-CSF only, zVAD) is on record as “completely inhibited cleavage”. Also, the “cleavage of RIPK1” value in experiment [3] (BMDC cultured with GM-CSF+IL-4, zVAD) is on record as “only partially inhibited”. The “death of human DC” value in experiment [4] is on record as “highly susceptible to death”.

The values are drawn from US10456441B2, “Augmenting the immune response by promoting cell death of immune cells” (The University of Vermont and State Agricultural College, priority 2014, dated 2019).
